Reference: article PMC11821258 (Molecules, 2025)

System: MV4-11 cells
Test: Apoptosis determination via Annexin V and PI staining
Format: cell-based, human
Settings: MV4-11, 72 h, higher concentrations
Description: Camptothecin at a concentration of 0.05 uM was used as a positive control. After incubation, the cells were collected and counted with a hemocytometer, and 1×10^5 cells were washed twice with PBS. APC-Annexin V (Becton Dickinson, Pharmingen, Franklin Lakes, NJ, USA) was dissolved to the concentration of […] in a binding buffer (10 mM HEPES/NaOH, pH 7.4; 150 mM NaCl; 5 mM KCl; 1 mM MgCl2; and 1.8 mM CaCl2) (HIIET, Wrocław, Poland), and the cells were suspended in 200 µL of this solution. After 15 min of the incubation in the dark at room temperature, 20 µL of propidium iodide (PI) solution (0.02 mg/mL) was added. Data acquisition was performed by conducting flow cytometry using a BD LSRFortessa cytometer (BD Bioscience, San Jose, CA, USA). The compounds were tested at least three times independently. Results were analyzed using Flowing software 2.5.1 (Turku, Finland). […] Double-negative cells were live cells, PI+/Annexin V+ were late apoptotic cells, PI-/Annexin V+ were early apoptotic cells, and PI+/Annexin V- were necrotic cells.

Compound | induction of apoptosis
C=C(C)[C@@H]1CC[C@]2(CO)CC[C@]3(C)C(CCC4[C@@]5(C)CC[C@H](OC(=O)CCC(=O)O)C(C)(C)C5CC[C@]43C)C12 (stereo partly shown) [Compound 6] | induction of apoptosis was observed

System: human biphenotypic B myelomonocytic leukemia MV4-11
Test: Antiproliferative activity, MTT assay, 72 h
Format: cell-based
Settings: Homo sapiens; MV4-11, 72 h, MTT; read-out: IC50
Description: (§1) The tested compounds were dissolved in DMSO (dimethyl sulfoxide) to a concentration of 10 mg/mL and then were diluted in the culture medium to reach the final concentrations. The cells were plated in 384-well plates at a density of 1 × 10^3 or 2 × 10^3 (MCF-10A) cells per well (Greiner Bio One, Kremsmünster, Austria) and in 96-well plates (MV4-11 cell; Sarstedt, Nümbrecht, Germany) at a density of 5 × 10^3 cells per well. After 24 h of incubation, the tested compounds were added at concentrations in the range of 100–0.03 µg/mL and, after the next 72 h of exposure to tested agents, the cytotoxic effect of all agents was examined using the MTT (MV4-11) or SRB assay, described previously. The values of IC50 (inhibitory concentration 50%) were calculated separately for each experiment (repeated 3–5 times) using the Prolab-3 system which is based on Cheburator 0.4 software. Doxorubicin was applied as a reference drug. The IC50 values in µg/mL were calculated to µM.
This assay was used against MV4-11 leukemia cells and was performed after 72 h of exposure of the tested agents to the cells. For each well, 20 µL of the MTT [3-(4,5-dimethylthiazol-2-yl)-2,5-diphenyl tetrazolium bromide] solution (5 mg/mL, Merck, Darmstadt, Germany) was added. After the incubation time (4 h at 37 °C), 80 µL of the lysing buffer was added to each well (mixture of 225 mL of DMF (dimethylformamide) Avantor, Poland; 67.5 g of SDS, Merck, Darmstadt, Germany; and 275 mL of distilled water). After the next 24 h, the absorbance of the samples was measured at a 570 nm wavelength on a Synergy H4 photometer (BioTek Instruments, Winooski, VT, USA). The absorbance of wells without the cells was the background.

Compound | IC50 [µM]
C=C(C)[C@@H]1CC[C@]2(CO)CC[C@]3(C)C(CCC4[C@@]5(C)CC[C@H](OC(=O)CC(C)(C)C(=O)O)C(C)(C)C5CC[C@]43C)C12 (stereo partly shown) [Compound 5] | 7.81 ± 2.8
C=C(C)[C@@H]1CC[C@]2(CO)CC[C@]3(C)C(CCC4[C@@]5(C)CC[C@H](OC(=O)CCC(=O)O)C(C)(C)C5CC[C@]43C)C12 (stereo partly shown) [Compound 6] | 6.45 ± 2.03

Same assay, conditions: IC50 MCF-10A / IC50 MV4-11

Compound | SI
C=C(C)[C@@H]1CC[C@]2(CO)CC[C@]3(C)C(CCC4[C@@]5(C)CC[C@H](OC(=O)CC(C)(C)C(=O)O)C(C)(C)C5CC[C@]43C)C12 (stereo partly shown) [Compound 5] | 3.43
C=C(C)[C@@H]1CC[C@]2(CO)CC[C@]3(C)C(CCC4[C@@]5(C)CC[C@H](OC(=O)CCC(=O)O)C(C)(C)C5CC[C@]43C)C12 (stereo partly shown) [Compound 6] | 4.94

System: human normal epithelial cells from the mammary gland (MCF-10A)
Test: Cytotoxicity on non-tumorigenic cells, SRB assay, 72 h
Format: cell-based
Settings: Homo sapiens, MCF-10A normal cells, SRB, read-out: IC50
Description: as §1
(§2) The cytotoxicity assay was performed after the cultured cells were exposed to the tested agents for 72 h using the authomatic Washer dyspenser EL406, BioTek. At the first step, the washer dispenser collected 40 µL of cultured medium from each wells, and then the cells were fixed by gently layering 20 µL per well of cold 25% trichloroacetic acid to each well. The incubation time was 40 min and then the plates were washed with tap water. The cells were stained with 20 µL per well of 0.1% sulforhodamine B (SRB, Merck, Darmstadt, Germany) for 30 min. Unbound sulforhodamine B was removed by washing it with 1% acetic acid. The protein-bound dye was extracted in 30 min using 70 µL per well of 10 mM unbuffered Tris base (Merck, Darmstadt, Germany). The absorbance (at 540 nm) was measured on a Synergy H4 photometer (BioTek Instruments, Winooski, VT, USA). The absorbance of the wells without the cells was the background.

Compound | IC50 [µM]
C=C(C)[C@@H]1CC[C@]2(CO)CC[C@]3(C)C(CCC4[C@@]5(C)CC[C@H](OC(=O)CC(C)(C)C(=O)O)C(C)(C)C5CC[C@]43C)C12 (stereo partly shown) [Compound 5] | 26.8 ± 2.1
C=C(C)[C@@H]1CC[C@]2(CO)CC[C@]3(C)C(CCC4[C@@]5(C)CC[C@H](OC(=O)CCC(=O)O)C(C)(C)C5CC[C@]43C)C12 (stereo partly shown) [Compound 6] | 31.9 ± 4.24

System: human colon cancer HCT116 cells
Test: Antiproliferative activity, SRB assay, 72 h
Format: cell-based
Settings: Homo sapiens, HCT-116; HCT116, 72 h, SRB; read-out: IC50
Description: as §1, §2

Compound | IC50 [µM]
C=C(C)[C@@H]1CC[C@]2(CO)CC[C@]3(C)C(CCC4[C@@]5(C)CC[C@H](OC(=O)CC(C)(C)C(=O)O)C(C)(C)C5CC[C@]43C)C12 (stereo partly shown) [Compound 5] | 14.7 ± 4.55
C=C(C)[C@@H]1CC[C@]2(CO)CC[C@]3(C)C(CCC4[C@@]5(C)CC[C@H](OC(=O)CCC(=O)O)C(C)(C)C5CC[C@]43C)C12 (stereo partly shown) [Compound 6] | 20.3 ± 5.53

Same assay, conditions: IC50 MCF-10A / IC50 HCT116

Compound | SI
C=C(C)[C@@H]1CC[C@]2(CO)CC[C@]3(C)C(CCC4[C@@]5(C)CC[C@H](OC(=O)CC(C)(C)C(=O)O)C(C)(C)C5CC[C@]43C)C12 (stereo partly shown) [Compound 5] | 1.82
C=C(C)[C@@H]1CC[C@]2(CO)CC[C@]3(C)C(CCC4[C@@]5(C)CC[C@H](OC(=O)CCC(=O)O)C(C)(C)C5CC[C@]43C)C12 (stereo partly shown) [Compound 6] | 1.57

System: human melanoma Hs294T cells
Test: Antiproliferative activity, SRB assay, 72 h
Format: cell-based
Settings: Homo sapiens, Hs 294T; Hs249T (so in the source), 72 h, SRB; read-out: IC50
Description: as §1, §2

Compound | IC50 [µM]
C=C(C)[C@@H]1CC[C@]2(CO)CC[C@]3(C)C(CCC4[C@@]5(C)CC[C@H](OC(=O)CC(C)(C)C(=O)O)C(C)(C)C5CC[C@]43C)C12 (stereo partly shown) [Compound 5] | 30.8 ± 1.4
C=C(C)[C@@H]1CC[C@]2(CO)CC[C@]3(C)C(CCC4[C@@]5(C)CC[C@H](OC(=O)CCC(=O)O)C(C)(C)C5CC[C@]43C)C12 (stereo partly shown) [Compound 6] | 32.1 ± 1.66

Same assay, conditions: IC50 MCF-10A / IC50 Hs249T (so in the source)

Compound | SI
C=C(C)[C@@H]1CC[C@]2(CO)CC[C@]3(C)C(CCC4[C@@]5(C)CC[C@H](OC(=O)CC(C)(C)C(=O)O)C(C)(C)C5CC[C@]43C)C12 (stereo partly shown) [Compound 5] | 0.87
C=C(C)[C@@H]1CC[C@]2(CO)CC[C@]3(C)C(CCC4[C@@]5(C)CC[C@H](OC(=O)CCC(=O)O)C(C)(C)C5CC[C@]43C)C12 (stereo partly shown) [Compound 6] | 0.99

System: human prostate adenocarcinoma PC-3
Test: Antiproliferative activity, SRB assay, 72 h
Format: cell-based
Settings: Homo sapiens; PC-3, 72 h, SRB; read-out: IC50
Description: as §1, §2

Compound | IC50 [µM]
C=C(C)[C@@H]1CC[C@]2(CO)CC[C@]3(C)C(CCC4[C@@]5(C)CC[C@H](OC(=O)CC(C)(C)C(=O)O)C(C)(C)C5CC[C@]43C)C12 (stereo partly shown) [Compound 5] | 27 ± 3.85
C=C(C)[C@@H]1CC[C@]2(CO)CC[C@]3(C)C(CCC4[C@@]5(C)CC[C@H](OC(=O)CCC(=O)O)C(C)(C)C5CC[C@]43C)C12 (stereo partly shown) [Compound 6] | 26.2 ± 5.71

Same assay, conditions: IC50 MCF-10A / IC50 PC-3

Compound | SI
C=C(C)[C@@H]1CC[C@]2(CO)CC[C@]3(C)C(CCC4[C@@]5(C)CC[C@H](OC(=O)CC(C)(C)C(=O)O)C(C)(C)C5CC[C@]43C)C12 (stereo partly shown) [Compound 5] | 1.01
C=C(C)[C@@H]1CC[C@]2(CO)CC[C@]3(C)C(CCC4[C@@]5(C)CC[C@H](OC(=O)CCC(=O)O)C(C)(C)C5CC[C@]43C)C12 (stereo partly shown) [Compound 6] | 1.22

System: human pancreas cancer MiaPaca-2 cells
Test: Antiproliferative activity, SRB assay, 72 h
Format: cell-based
Settings: Homo sapiens, MIA PaCa-2; MiaPaca-1 (so in the source), 72 h, SRB; read-out: IC50
Description: as §1, §2

Compound | IC50 [µM]
C=C(C)[C@@H]1CC[C@]2(CO)CC[C@]3(C)C(CCC4[C@@]5(C)CC[C@H](OC(=O)CC(C)(C)C(=O)O)C(C)(C)C5CC[C@]43C)C12 (stereo partly shown) [Compound 5] | 30.7 ± 2.63
C=C(C)[C@@H]1CC[C@]2(CO)CC[C@]3(C)C(CCC4[C@@]5(C)CC[C@H](OC(=O)CCC(=O)O)C(C)(C)C5CC[C@]43C)C12 (stereo partly shown) [Compound 6] | 38.1 ± 3.87

Same assay, conditions: IC50 MCF-10A / IC50 MiaPaca-1 (so in the source)

Compound | SI
C=C(C)[C@@H]1CC[C@]2(CO)CC[C@]3(C)C(CCC4[C@@]5(C)CC[C@H](OC(=O)CC(C)(C)C(=O)O)C(C)(C)C5CC[C@]43C)C12 (stereo partly shown) [Compound 5] | 0.87
C=C(C)[C@@H]1CC[C@]2(CO)CC[C@]3(C)C(CCC4[C@@]5(C)CC[C@H](OC(=O)CCC(=O)O)C(C)(C)C5CC[C@]43C)C12 (stereo partly shown) [Compound 6] | 0.84

System: human lung carcinoma A549
Test: Antiproliferative activity, SRB assay, 72 h
Format: cell-based
Settings: Homo sapiens; A549, 72 h, SRB; read-out: IC50
Description: as §1, §2

Compound | IC50 [µM]
C=C(C)[C@@H]1CC[C@]2(CO)CC[C@]3(C)C(CCC4[C@@]5(C)CC[C@H](OC(=O)CC(C)(C)C(=O)O)C(C)(C)C5CC[C@]43C)C12 (stereo partly shown) [Compound 5] | 9.11 ± 0.87
C=C(C)[C@@H]1CC[C@]2(CO)CC[C@]3(C)C(CCC4[C@@]5(C)CC[C@H](OC(=O)CCC(=O)O)C(C)(C)C5CC[C@]43C)C12 (stereo partly shown) [Compound 6] | 8.66 ± 1.1

Same assay, conditions: IC50 MCF-10A / IC50 A549

Compound | SI
C=C(C)[C@@H]1CC[C@]2(CO)CC[C@]3(C)C(CCC4[C@@]5(C)CC[C@H](OC(=O)CC(C)(C)C(=O)O)C(C)(C)C5CC[C@]43C)C12 (stereo partly shown) [Compound 5] | 2.94
C=C(C)[C@@H]1CC[C@]2(CO)CC[C@]3(C)C(CCC4[C@@]5(C)CC[C@H](OC(=O)CCC(=O)O)C(C)(C)C5CC[C@]43C)C12 (stereo partly shown) [Compound 6] | 3.68

System: human breast cancer MCF-7
Test: Antiproliferative activity, SRB assay, 72 h
Format: cell-based
Settings: Homo sapiens, MCF7; MCF-7, 72 h, SRB; read-out: IC50
Description: as §1, §2

Compound | IC50 [µM]
C=C(C)[C@@H]1CC[C@]2(CO)CC[C@]3(C)C(CCC4[C@@]5(C)CC[C@H](OC(=O)CC(C)(C)C(=O)O)C(C)(C)C5CC[C@]43C)C12 (stereo partly shown) [Compound 5] | 29.2 ± 3.85
C=C(C)[C@@H]1CC[C@]2(CO)CC[C@]3(C)C(CCC4[C@@]5(C)CC[C@H](OC(=O)CCC(=O)O)C(C)(C)C5CC[C@]43C)C12 (stereo partly shown) [Compound 6] | 19 ± 6.45

Same assay, conditions: IC50 MCF-10A / IC50 MCF-7

Compound | SI
C=C(C)[C@@H]1CC[C@]2(CO)CC[C@]3(C)C(CCC4[C@@]5(C)CC[C@H](OC(=O)CC(C)(C)C(=O)O)C(C)(C)C5CC[C@]43C)C12 (stereo partly shown) [Compound 5] | 0.92
C=C(C)[C@@H]1CC[C@]2(CO)CC[C@]3(C)C(CCC4[C@@]5(C)CC[C@H](OC(=O)CCC(=O)O)C(C)(C)C5CC[C@]43C)C12 (stereo partly shown) [Compound 6] | 1.68
